Results on 13 compounds are retold here after US7304046B2, “Phosphoramide compounds” (priority 1999, dated 2007).

pIC50: −log10 of the molar value. Like-named read-outs stand apart in the source and are kept apart here.

One test relates to MDA231 (breast). Briefly: Growth inhibition, MTT assay, MDA231. The note with it: read-out: IC50 growth inhibitory activity. It counts as cell-based, human. How it is done:
(§1) The growth inhibitory properties of representative compounds of the invention were also determined by evaluating their growth inhibitory activity against a series of human tumor cell lines using a 72-h drug exposure. Cell counts were measured using the MTT assay.
For orientation: Tetrazolium assays rely on reduction of a dye to a coloured formazan, in cell work by metabolically active cells.

In another test the test system is PC-3 (prostate). Description: Growth inhibition, MTT assay, PC-3. The note with it: PC-3, 72-h drug exposure, read-out: IC50 growth inhibitory activity. The class given is cell-based, human. As for the experimental part: as §1
A further test relates to HT-29 (colon). Description: Growth inhibition, MTT assay, HT-29. The note with it: HT-29, 72-h drug exposure, read-out: IC50 growth inhibitory activity. The class given is cell-based, human. As for the experimental part:
as §1

For the next test, the system named is PaCa-2 (pancreas). Briefly: Growth inhibition, MTT assay, PaCa-2. The class given is cell-based, human. The note with it: PaCa-2, 72-h drug exposure; for pIC50: read-out: IC50 growth inhibitory activity. As for the experimental part: as §1
The test system of another test is A498 (kidney). Briefly: Growth inhibition, MTT assay, A498. The class given is cell-based, human. As to conditions: A498, 72-h drug exposure, read-out: IC50 growth inhibitory activity. How it is done: as §1
The next test relates to A549 (lung). Briefly: Growth inhibition, MTT assay, A549. It counts as cell-based, human. As to conditions: A549, 72-h drug exposure, read-out: IC50 growth inhibitory activity. As for the experimental part:
as §1

Another test deals with UMUC3 (bladder). Briefly: Growth inhibition, MTT assay, UMUC3. It counts as cell-based, human. The note with it: UMUC3, 72-h drug exposure; for pIC50: read-out: IC50 growth inhibitory activity. How it is done:
as §1

The subject of a further test is IGROV (ovarian). Briefly: Growth inhibition, MTT assay, IGROV. The class given is cell-based, human. As to conditions: 72-h drug exposure, read-out: IC50 growth inhibitory activity. How it is done:
as §1

Another test concerns HT-29 cells. Briefly: Test A: in vitro cytotoxicity, clonogenic survival of HT-29 cells. The class given is cell-based, human. As to conditions: 2 h drug treatment, colonies after 10 days, concentration at which there is a 1% cell survival. The source says: (§2) Test A: In Vitro Cytotoxicity (Clonogenic Survival of HT-29 and BE Cells):
(§3) The human colon carcinoma cell line HT-29 was obtained from the American Type Culture Collection (ATCC), and the BE cell line was provided by Dr. D. Ross, University of Colorado. A modification of the procedure described by Miribelli et al Cancer Research, 1985, 45, 32–39 was used to determine the clonogenic survival of the cells. HT-29 and BE cells in exponential growth were suspended in unsupplemented Eagles MEM medium (10 mL) at a final density of 1.7–2×10^5 cells/mL. Unsupplemented medium contains Minimum Essential Medium (Gibco) and HEPES (0.02 M). The drug stock solutions (0.1–40 mM) were prepared using either ethanol or dimethyl sulfoxide as solvent. The maximum amount of DMSO or ethanol used in the drug treatments was 1% of the total volume. Appropriate volumes (6.5 to 100 μL) of the drug stock solution were added to five vials of the cell suspensions, to give five different final drug concentrations, and 100 μL of solvent was added to a sixth vial for a control. The treated cells were incubated for 2 h (37° C., 5% CO2). The cells were spun down and rinsed three times with supplemented medium (3 mL) and then diluted in 5 mL of supplemented medium. Supplemented medium is prepared by adding Fetal Bovine Serum (10%), gentamicin (0.05 mg/mL), L-glutamine (0.03 mg/mL), and sodium pyruvate (0.1 mM) to unsupplemented medium. The cells were counted using a Coulter Counter and then plated at 2–3 different densities for each drug concentration and incubated for 10 days. The colonies were stained with 0.5% crystal violet in 95% ethanol and those colonies comprised of 50 or more cells were counted using a microscope and pen-style counter. The LC99 of each compound (the concentration at which there is a 1% cell survival) was determined by plotting the log surviving fraction vs. drug concentration.

The next test deals with BE cells. Description: Test A: in vitro cytotoxicity, clonogenic survival of BE cells. It counts as cell-based. The note with it: 2 h drug treatment, colonies after 10 days, concentration at which there is a 1% cell survival.
From the text: as §2, §3

Another test relates to human tumor cell lines. Description: Growth inhibition, MTT assay, series of human tumor cell lines (all cell lines). As to conditions: all cell lines of Table 2, 72-h drug exposure. The class given is cell-based. How it is done: as §1
[1] abbreviates: Homo sapiens, MDA-MB-231, MDA231, 72-h drug exposure.

As for “3-(5-Methoxy-1-methyl-4,7-indolequinonyl)methyl N,N-bis(2-bromoethyl)phosphorodiamidate [Compound 4]”, the pIC50 (in general, the negative decadic logarithm of the IC50, by convention in mol/L) in the test with MDA231 (breast) (MDA231, 72-h drug exposure) is 6.71; in the test with PC-3 (prostate) it was 6.19; in the test with HT-29 (colon), 6.62; in the test with PaCa-2 (pancreas), 6.67; in the test with A498 (kidney) it was 6.00; in the test with A549 (lung), 6.40. Besides, the pIC50 in the test with UMUC3 (bladder) was 8.00.

Consider `COC1=CC(=O)c2c(cc(COP(=O)(N(C)CCBr)N(C)CCBr)n2C)C1=O` [Compound 5, 2-(5-Methoxy-1-methyl-4,7-indolequinonyl)methyl bis[N-methyl-N-(2-bromoethyl)]phosphorodiamidate], for which the pIC50 was 5.12 with IGROV (ovarian) (Homo sapiens); 6.68 in the test on MDA231 (breast) (setting [1]); 6.38 in the test with PC-3 (prostate) (Homo sapiens); 7.03 in the test on HT-29 (colon) (Homo sapiens); 7.89 in the test with PaCa-2 (pancreas) (Homo sapiens); 5.58 with A498 (kidney) (Homo sapiens). Further, the pIC50 is 6.59 in the test on A549 (lung) (Homo sapiens) and 7.85 with UMUC3 (bladder) (Homo sapiens). Moreover, the “IC50 values in words” value with PaCa-2 (pancreas) and with UMUC3 (bladder) was “low nanomolar range” throughout.

Regarding `COC1=CC(=O)c2c(cc(COP(N)(=O)N(CCCl)CCCl)n2C)C1=O` (centres unmarked) [Compound 6a, 2-(5-Methoxy-1-methyl-4,7-indolequinonyl)methyl N,N-bis(2-chloroethyl)phosphorodiamidate], the pIC50 in the test on IGROV (ovarian) is 5.77; with MDA231 (breast) (MDA231, 72-h drug exposure), 5.46; in the test on PC-3 (prostate), 6.77; in the test on HT-29 (colon), 6.47; with PaCa-2 (pancreas), 8.22; with A498 (kidney) it was 6.06. Also, the pIC50 with A549 (lung) is 6.69; in the test with UMUC3 (bladder), 7.66. For the same compound, the “IC50 values in words” value in the test on PaCa-2 (pancreas) and in the test on UMUC3 (bladder) was “low nanomolar range” throughout.

In the case of `COC1=CC(=O)c2c(cc(COP(N)(=O)N(CCBr)CCBr)n2C)C1=O` (centres unmarked) [Compound 6b, 2-(5-Methoxy-1-methyl-4,7-indolequinonyl)methyl N,N-bis(2-bromoethyl)phosphorodiamidate], the pIC50 with IGROV (ovarian) was 5.83; with MDA231 (breast) (MDA231, 72-h drug exposure), 5.79; with PC-3 (prostate), 6.71; in the test on HT-29 (colon), 7.21; in the test on PaCa-2 (pancreas), 7.46; in the test on A498 (kidney), 6.70. In addition, the negative-log IC50 (pIC50) with A549 (lung) is 8.05; with UMUC3 (bladder), 9.00. For the same compound, the “IC50 values in words” value in the test with PaCa-2 (pancreas) and with UMUC3 (bladder) was “low nanomolar range” each time.

For the compound `CC1=C(COP(N)(=O)N(CCCl)CCCl)C(=O)c2ccccc2C1=O` (centres unmarked) [Compound 15b, 2-(3-Methyl-1,4-naphthoquinonyl)methyl N,N-bis(2-chloroethyl) phosphorodiamidate], the values for the LC99 with HT-29 cells and in the test with BE cells were 2.1 µM and 1.0 µM, respectively.

For the compound `CSC1=C(COP(N)(=O)N(CCCl)CCCl)C(=O)c2ccccc2C1=O` (centres unmarked) [Compound 15c, 2-(3-Thiomethyl-1,4-naphthoquinonyl)methyl N,N-bis(2-chloroethyl)phosphorodiamidate], the results for the LC99 in the test with HT-29 cells and in the test on BE cells were 4.2 µM and 5.9 µM, respectively.

Take `NP(=O)(OCC1=C(Br)C(=O)c2ccccc2C1=O)N(CCCl)CCCl` (centres unmarked) [Compound 15d, 2-(3-Bromo-1,4-naphthoquinonyl)methyl N,N-bis(2-chloroethyl)phosphorodiamidate]: the figures for the LC99 with HT-29 cells and in the test with BE cells were 4.1 µM and 3.3 µM, respectively.

On to `CC1=C(COP(N)(=O)N(CCBr)CCBr)C(=O)c2ccccc2C1=O` (centres unmarked) [Compound 16b, 2-(3-Methyl-1,4-naphthoquinonyl)methyl N,N-bis(2-bromoethyl) phosphorodiamidate], for which the values for the LC99 in the test on HT-29 cells and with BE cells were 1.7 µM and 1.2 µM, respectively.

With `O=C1C=C(COP(=O)(NCCCl)NCCCl)C(=O)c2ccccc21` [Compound 17, 2-(1,4-Naphthoquinonyl)methyl bis[N-(2-chloroethyl)] phosphorodiamidate], the LC99 with HT-29 cells was 14 µM; in the test on BE cells, 7.8 µM.

In the case of `CN(CCBr)P(=O)(OCC1=CC(=O)c2ccccc2C1=O)N(C)CCBr` [Compound 40a, 2-(1,4-Naphthoquinonyl)methyl bis[N-methyl-N-(2-bromoethyl)]phosphorodiamidate], the LC99 in the test with HT-29 cells was determined as 4.5 µM; in the test on BE cells it was 1.2 µM. The pIC50 in the test with IGROV (ovarian) is 5.69; in the test with MDA231 (breast) (MDA231, 72-h drug exposure) it was 5.49; in the test with PC-3 (prostate), 5.59; in the test with HT-29 (colon), 5.23; in the test on PaCa-2 (pancreas), 5.64; in the test on A498 (kidney), 5.35. Moreover, the figures for the pIC50 with A549 (lung) and with UMUC3 (bladder) were 4.95 and 5.00, respectively. The “IC50 in words, against all cell lines” value with human tumor cell lines was “low micromolar range”.

As to `CC1=C(COP(=O)(N(C)CCBr)N(C)CCBr)C(=O)c2ccccc2C1=O` [Compound 40b, 2-(3-Methyl-1,4-naphthoquinonyl)methyl bis[N-methyl-N-(2-bromoethyl)] phosphorodiamidate], the LC99 with HT-29 cells amounted to 1.5 µM; in the test on BE cells, 0.44 µM.

Consider `CN(CCCl)P(=O)(OCC1=CC(=O)c2ccccc2C1=O)N(C)CCCl` [Compound 40c, 2-(1,4-Naphthoquinonyl)methyl bis[N-methyl-N-(2-chloroethyl)]phosphorodiamidate], for which the LC99 in the test with HT-29 cells was 4.5 µM; with BE cells it was 2.8 µM.

Consider `COC1=CC(=O)c2c(c(COP(=O)(N(C)CCBr)N(C)CCBr)cn2C)C1=O` [Compound 47, 3-(5-Methoxy-1-methyl-4,7-indolequinonyl)-methyl bis[N-methyl-N-(2-bromoethyl)] phosphorodiamidate], for which the LC99 in the test on HT-29 cells stood at 0.07 µM; in the test on BE cells, 0.14 µM. For the same compound, the pIC50 is 6.31 with IGROV (ovarian) (Homo sapiens); 7.40 in the test with MDA231 (breast) (setting [1]); 7.18 in the test with PC-3 (prostate) (Homo sapiens); 7.19 in the test on HT-29 (colon) (Homo sapiens); 7.60 in the test with PaCa-2 (pancreas) (Homo sapiens); 6.46 with A498 (kidney) (Homo sapiens). Also, the pIC50 was 7.64 in the test on A549 (lung) (Homo sapiens) and 8.70 in the test on UMUC3 (bladder) (Homo sapiens). The “IC50 values in words” value with PaCa-2 (pancreas) and in the test on UMUC3 (bladder) was “low nanomolar range” in each case.
